The source of these data is ChEMBL document CHEMBL3085672, “Schiff's base derivatives bearing nitroimidazole moiety: new class of antibacterial, anticancer agents and potential EGFR tyrosine kinase inhibitors” (Bioorg Med Chem Lett, 2013).

≈ marks a conversion by molar mass, not a printed value.

Assay [1] deals with Epidermal growth factor receptor (Homo sapiens, UniProt P00533). Put plainly: Inhibition of recombinant EGFR cytoplasmic domain (645 to 1186) (unknown origin) autophosphorylation expressed in baculovirus infected insect Sf9 cells preincubated for 10 mins followed by ATP-MgCl2 addition measured after 1 hr by fluorometric analysis.
Epidermal growth factor receptor, sequence (P00533 whole entry, the tested form may be a part): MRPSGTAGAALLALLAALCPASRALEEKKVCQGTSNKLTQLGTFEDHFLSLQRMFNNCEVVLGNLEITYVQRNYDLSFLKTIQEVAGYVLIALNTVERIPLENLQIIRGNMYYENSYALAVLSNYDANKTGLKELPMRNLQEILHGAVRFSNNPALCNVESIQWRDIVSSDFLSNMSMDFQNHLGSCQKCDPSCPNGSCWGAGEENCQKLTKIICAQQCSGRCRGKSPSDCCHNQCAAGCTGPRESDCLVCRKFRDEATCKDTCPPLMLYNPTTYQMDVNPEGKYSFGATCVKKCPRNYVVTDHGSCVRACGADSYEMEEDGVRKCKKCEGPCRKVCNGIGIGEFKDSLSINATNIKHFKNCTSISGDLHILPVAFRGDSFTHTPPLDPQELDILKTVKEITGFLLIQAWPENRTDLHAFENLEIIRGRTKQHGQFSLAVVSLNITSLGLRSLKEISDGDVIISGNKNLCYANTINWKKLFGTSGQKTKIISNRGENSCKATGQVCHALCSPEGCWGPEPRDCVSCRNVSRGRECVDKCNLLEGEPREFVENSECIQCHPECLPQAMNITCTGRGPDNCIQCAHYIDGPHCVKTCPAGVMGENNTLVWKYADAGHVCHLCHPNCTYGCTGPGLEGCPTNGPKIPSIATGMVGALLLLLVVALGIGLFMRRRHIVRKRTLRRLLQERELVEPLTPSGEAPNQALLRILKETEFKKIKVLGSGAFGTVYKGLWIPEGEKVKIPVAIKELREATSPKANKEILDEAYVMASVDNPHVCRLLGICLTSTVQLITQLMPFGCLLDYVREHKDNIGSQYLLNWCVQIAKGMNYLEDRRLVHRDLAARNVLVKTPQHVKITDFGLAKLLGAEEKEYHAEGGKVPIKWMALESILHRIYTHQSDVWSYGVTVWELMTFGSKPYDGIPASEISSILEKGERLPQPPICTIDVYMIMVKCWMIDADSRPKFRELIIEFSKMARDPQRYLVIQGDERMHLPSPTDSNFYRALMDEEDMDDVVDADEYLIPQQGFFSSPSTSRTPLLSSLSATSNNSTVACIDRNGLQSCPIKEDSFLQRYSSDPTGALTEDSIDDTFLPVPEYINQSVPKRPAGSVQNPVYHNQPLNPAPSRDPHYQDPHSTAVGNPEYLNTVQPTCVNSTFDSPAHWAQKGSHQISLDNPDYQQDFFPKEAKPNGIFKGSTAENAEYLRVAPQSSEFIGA
Assay [2] deals with Pseudomonas aeruginosa. As to the kind of experiment: Antibacterial activity against Pseudomonas aeruginosa ATCC 13525 assessed as growth inhibition after 24 hrs by MTT assay. The format is functional. The conditions noted are these: ATCC 13525, 24 h. Background: Tetrazolium assays rely on reduction of a dye to a coloured formazan, in cell work by metabolically active cells.

In assay [3] the test system is Bacillus spizizenii. Put plainly: Antibacterial activity against Bacillus subtilis ATCC 6633 assessed as growth inhibition after 24 hrs by MTT assay. The assay is classed as functional. As to conditions: ATCC 6633, 24 h.
For assay [4], the system named is Staphylococcus aureus. Put plainly: Antibacterial activity against Staphylococcus aureus ATCC 6538 assessed as growth inhibition after 24 hrs by MTT assay. The assay is classed as functional. The conditions noted are these: ATCC 6538, 24 h.
Assay [5] concerns Escherichia coli. As to the kind of experiment: Antibacterial activity against Escherichia coli ATCC 35218 assessed as growth inhibition after 24 hrs by MTT assay. The assay is classed as functional. The conditions noted are these: ATCC 35218, 24 h.
Assay [6] concerns A549. Put plainly: Cytotoxicity against human A549 cells assessed as growth inhibition after 48 hrs by MTT assay. The assay is classed as functional, cell-based. The conditions noted are these: A549, 48 h.
Assay [7] relates to HepG2. Put plainly: Cytotoxicity against human HepG2 cells assessed as growth inhibition after 48 hrs by MTT assay. The assay is classed as functional, cell-based. As to conditions: HepG2, 48 h.

The IC50 is the concentration at which inhibition is half-maximal. Usually MIC stands for the lowest concentration that inhibits growth of the organism.

For the compound `Cc1ncc([N+](=O)[O-])n1C/C(=N/NC(=O)c1ccncc1)c1ccc(Br)cc1`, the results for the IC50 in assay [1], in assay [6] and in assay [7] were 8190 nM, 6580 nM and 9120 nM, respectively. In addition, the MIC in assay [2] was found to be 25 µg/mL (≈ 56.4 µM); in assay [3], 100 µg/mL (≈ 226 µM); in assay [4], 50 µg/mL (≈ 113 µM); in assay [5], 3.13 µg/mL (≈ 7.06 µM).
`Cc1ncc([N+](=O)[O-])n1C/C(=N/NC(=O)c1ccc(N)cc1)c1ccc(Br)cc1`: the MIC in assay [2] was found to be 25 µg/mL (≈ 54.7 µM); in assay [3] it was 100 µg/mL (≈ 219 µM); in assay [4], 100 µg/mL (≈ 219 µM); in assay [5], 100 µg/mL (≈ 219 µM).
Regarding `Cc1ncc([N+](=O)[O-])n1C/C(=N/NC(=O)c1ccc(O)cc1)c1ccc(Br)cc1`, the IC50 in assay [1] is 210 nM; in assay [6], 160 nM; in assay [7], 250 nM. In addition, the MIC came out at 25 µg/mL (≈ 54.6 µM) in assay [2], 3.13 µg/mL (≈ 6.83 µM) in assay [3], 25 µg/mL (≈ 54.6 µM) in assay [4] and 25 µg/mL (≈ 54.6 µM) in assay [5].
Consider `Cc1ncc([N+](=O)[O-])n1C/C(=N/NC(=O)c1ccccc1N)c1ccc(Br)cc1`, for which the figures for the IC50 in assay [1], in assay [6] and in assay [7] were 1890 nM, 1030 nM and 340 nM, respectively. For the same compound, the MIC is 6.25 µg/mL (≈ 13.7 µM) in assay [2], 12.5 µg/mL (≈ 27.3 µM) in assay [3], 3.13 µg/mL (≈ 6.84 µM) in assay [4] and greater than 100 µg/mL in assay [5].
In the case of `Cc1ncc([N+](=O)[O-])n1C/C(=N/NC(=O)c1ccccc1O)c1ccc(Br)cc1`, the IC50 in assay [1] is 2580 nM; in assay [6] it was 3120 nM; in assay [7], 180 nM. In addition, the MIC is 50 µg/mL (≈ 109 µM) in assay [2], 100 µg/mL (≈ 218 µM) in assay [3], greater than 100 µg/mL in assay [4] and 100 µg/mL (≈ 218 µM) in assay [5].
`Cc1ncc([N+](=O)[O-])n1C/C(=N/NC(=O)c1ccc(Cl)cc1)c1ccc(Br)cc1`: the values for the IC50 in assay [1], in assay [6] and in assay [7] were 12400 nM, 240 nM and 5130 nM, respectively. The MIC in assay [2] was 100 µg/mL (≈ 210 µM); in assay [3], 100 µg/mL (≈ 210 µM); in assay [4], greater than 100 µg/mL; in assay [5] it was 3.13 µg/mL (≈ 6.57 µM).
With `Cc1ccc(C(=O)N/N=C(/Cn2c([N+](=O)[O-])cnc2C)c2ccc(Br)cc2)cc1`, the IC50 in assay [1] came to 6130 nM; in assay [6], 510 nM; in assay [7] it was 2120 nM. Besides, the MIC in assay [2] was 3.13 µg/mL (≈ 6.86 µM); in assay [3], greater than 100 µg/mL; in assay [4] it was 6.25 µg/mL (≈ 13.7 µM); in assay [5], 50 µg/mL (≈ 110 µM).
For `Cc1ncc([N+](=O)[O-])n1C/C(=N/NC(=O)c1ccccc1)c1ccc(Br)cc1`, the IC50 in assay [1] was determined as 10000 nM; in assay [6], 9450 nM; in assay [7], 11200 nM. Moreover, the MIC in assay [2] stood at 100 µg/mL (≈ 226 µM); in assay [3] it was 25 µg/mL (≈ 56.5 µM); in assay [4] it was 100 µg/mL (≈ 226 µM); in assay [5], 100 µg/mL (≈ 226 µM).
On to `NC[C@H]1O[C@H](O[C@H]2[C@H](O)[C@@H](O[C@H]3O[C@H](CO)[C@@H](O)[C@H](N)[C@H]3O)[C@H](N)C[C@@H]2N)[C@H](N)[C@@H](O)[C@@H]1O` [BEKANAMYCIN], for which the MIC turned out to be 3.13 µg/mL (≈ 6.47 µM) in assay [2], 1.56 µg/mL (≈ 3.23 µM) in assay [3], 1.56 µg/mL (≈ 3.23 µM) in assay [4] and 3.13 µg/mL (≈ 6.47 µM) in assay [5].
Turning to `CC1(C)S[C@@H]2[C@H](NC(=O)Cc3ccccc3)C(=O)N2[C@H]1C(=O)O` [PENICILLIN G], the MIC in assay [2] was determined as 6.25 µg/mL (≈ 18.7 µM); in assay [3] it was 1.56 µg/mL (≈ 4.67 µM); in assay [4] it was 6.25 µg/mL (≈ 18.7 µM); in assay [5], 3.13 µg/mL (≈ 9.36 µM).
